Data on three molecules can be found in ChEMBL document CHEMBL4602605, “Fluoroquinolones structural and medicinal developments (2013-2018): Where are we now?” (Bioorg Med Chem, 2019).

In general, MIC refers to the smallest concentration in the dilution series that meets the test's criterion for growth inhibition. Lower therefore signals greater potency.

Converted amounts (≈) assume the structure as drawn.

This experiment concerns Mycobacterium tuberculosis. Briefly: Antimicrobial activity against rifampin and isoniazid resistant Mycobacterium tuberculosis Beijing harboring rpoB Ser 531-Leu 315 and katC Ser-Thr mutant incubated for 10 days by microbroth dilution method. Type of experiment: functional.
For `CCn1cc(C(=O)O)c(=O)c2cc(F)c(-c3cc4cc(Br)ccc4oc3=O)cc21`, the MIC was determined as 6.2 µg/mL (≈ 13.5 µM).

Turning to `CCn1cc(C(=O)O)c(=O)c2cc(F)c(-c3cc4cc(C(C)(C)C)cc(C(C)(C)C)c4oc3=O)cc21`, the MIC is 3.1 µg/mL (≈ 6.31 µM).

In turn, `CCOc1cccc2cc(-c3cc4c(cc3F)c(=O)c(C(=O)O)cn4CC)c(=O)oc12` came in with an MIC of 1.5 µg/mL (≈ 3.54 µM).
